Data as given in ChEMBL document CHEMBL1201862, “PubChem BioAssay data set” (2004).
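Test compounds were applied to cells in 96-well plates for 48 hours at 5 doses. At the GI50, growth is halved.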 The source made the active and inactive calls. Cut-off read from the data, not from the text of the source: active = GI50 up to about 1.1 µM and inactive = higher.

What was measured:
Test in all cases: NCI tumour cell line growth inhibition, 48 h
[1] = tested on: 786-0
[2] = tested on: A498
[3] = tested on: BT-549
[4] = tested on: HCT-116
[5] = tested on: HCT-15
[6] = tested on: HT-29
[7] = tested on: IGROV-1
[8] = tested on: LOX IMVI
[9] = tested on: M14
[10] = tested on: MDA-MB-435
[11] = tested on: NCI-H23
[12] = tested on: OVCAR-3
[13] = tested on: OVCAR-8
[14] = tested on: RPMI-8226
[15] = tested on: SK-MEL-2
[16] = tested on: SK-OV-3
[17] = tested on: T47D
[18] = tested on: K562
[19] = tested on: UO-31

SMILES	GI50 [1]	GI50 [2]	GI50 [3]	GI50 [4]	GI50 [5]	GI50 [6]	GI50 [7]	GI50 [8]	GI50 [9]	GI50 [10]	GI50 [11]	GI50 [12]	GI50 [13]	GI50 [14]	GI50 [15]	GI50 [16]	GI50 [17]	GI50 [18]	GI50 [19]
Nc1nc(Nc2cc(F)c(Cl)c(F)c2)cc(=O)[nH]1	76.4 µM (inactive)	94.8 µM (inactive)	60.3 µM (inactive)	74.3 µM (inactive)	> 100 µM	> 100 µM (inactive)	> 100 µM (inactive)	> 100 µM (inactive)	41.5 µM (inactive)	44.4 µM (inactive)	95.9 µM (inactive)	> 100 µM (inactive)	> 100 µM (inactive)	56.4 µM (inactive)	71.4 µM (inactive)	68.1 µM (inactive)	77.6 µM (inactive)	–	–
CN1CCN(C(=S)N(C(=O)c2ccc(Cl)cc2)c2ccccc2)CC1	> 100 µM (inactive)	–	> 100 µM (inactive)	–	> 100 µM	> 100 µM (inactive)	> 100 µM (inactive)	> 100 µM (inactive)	> 100 µM (inactive)	> 100 µM (inactive)	> 100 µM (inactive)	> 100 µM (inactive)	> 100 µM (inactive)	> 100 µM (inactive)	> 100 µM (inactive)	–	> 100 µM (inactive)	> 100 µM (inactive)	> 100 µM (inactive)
Cc1c(N2C(=O)C(Cl)C2c2ccc(Cl)cc2)c(=O)n(-c2ccccc2)n1C (configuration not stated)	33.1 µM (inactive)	–	> 100 µM (inactive)	18.8 µM (inactive)	–	> 100 µM (inactive)	27.1 µM (inactive)	31 µM (inactive)	62.7 µM (inactive)	23.4 µM (inactive)	23.9 µM (inactive)	75.3 µM (inactive)	> 100 µM (inactive)	16 µM (inactive)	> 100 µM (inactive)	> 100 µM (inactive)	88.3 µM (inactive)	45.5 µM (inactive)	> 100 µM (inactive)
COc1ccc(N)c(C(O)CCNC(C)=O)c1 (configuration not stated)	> 100 µM (inactive)	> 100 µM (inactive)	> 100 µM (inactive)	> 100 µM (inactive)	> 100 µM	> 100 µM (inactive)	> 100 µM (inactive)	> 100 µM (inactive)	> 100 µM (inactive)	> 100 µM (inactive)	> 100 µM (inactive)	> 100 µM (inactive)	> 100 µM (inactive)	> 100 µM (inactive)	> 100 µM (inactive)	> 100 µM (inactive)	> 100 µM (inactive)	–	> 100 µM (inactive)
O=C(/N=N/c1ccccc1Br)NNc1ccccc1Br	72.1 µM (inactive)	58.7 µM (inactive)	82.8 µM (inactive)	24.7 µM (inactive)	61.2 µM	> 100 µM (inactive)	55.6 µM (inactive)	91.4 µM (inactive)	60.8 µM (inactive)	84.5 µM (inactive)	48.9 µM (inactive)	86.3 µM (inactive)	> 100 µM (inactive)	33.8 µM (inactive)	35.4 µM (inactive)	–	13.7 µM (inactive)	27.3 µM (inactive)	38.9 µM (inactive)
O=C(NC1(C(=O)NNc2nnc(-c3ccccc3)c(-c3ccccc3)n2)C(c2ccccc2)C(c2ccccc2)=NN1c1ccccc1)c1ccccc1 (configuration not stated)	> 100 µM (inactive)	> 100 µM (inactive)	> 100 µM (inactive)	> 100 µM (inactive)	> 100 µM	> 100 µM (inactive)	–	–	> 100 µM (inactive)	> 100 µM (inactive)	> 100 µM (inactive)	> 100 µM (inactive)	> 100 µM (inactive)	–	> 100 µM (inactive)	> 100 µM (inactive)	> 100 µM (inactive)	–	41.4 µM (inactive)
CCOC(=O)/C=C(\C(=O)OCC)n1cc(Cl)c(=O)n(CC(=O)OCC)c1=O	1.73 µM (inactive)	19.2 µM (inactive)	18 µM (inactive)	2.19 µM (inactive)	3.17 µM	16.5 µM (inactive)	6.93 µM (inactive)	4.99 µM (inactive)	3.4 µM (inactive)	16.9 µM (inactive)	14.7 µM (inactive)	2.82 µM (inactive)	2.19 µM (inactive)	1.74 µM (inactive)	16.2 µM (inactive)	19.5 µM (inactive)	1.66 µM (inactive)	–	1.87 µM (inactive)
O=C1NC(N2CCCC(CO)C2)=N/C1=C\c1ccc(Cl)cc1 (configuration not stated)	> 100 µM (inactive)	–	> 100 µM (inactive)	> 100 µM (inactive)	77.6 µM	> 100 µM (inactive)	37.1 µM (inactive)	87.5 µM (inactive)	> 100 µM (inactive)	> 100 µM (inactive)	> 100 µM (inactive)	> 100 µM (inactive)	> 100 µM (inactive)	> 100 µM (inactive)	> 100 µM (inactive)	> 100 µM (inactive)	75.9 µM (inactive)	> 100 µM (inactive)	75 µM (inactive)
